Test results from publication PMC10528385 (Antiviral research, 2023).

What was measured:
[1] = molecular target: NA of A/Texas/12/2007 A(H3N2), NA-E119V (Influenza A virus, UniProt D1FVK3, I119V); test: biochemical
[2] = molecular target: NA of A/Bethesda/956/2006 A(H3N2), NA-R292K (Influenza A virus, UniProt F1KL32, R292K); assay type: biochemical; conditions: read-out: Susceptibility to NAIs, mean IC50 ± SD

## CC(=O)N[C@H]1[C@H]([C@H](O)[C@H](O)CO)OC(C(=O)O)=C[C@@H]1N=C(N)N [Zanamivir, zanamivir]
[1]
  IC50: 1.3 nM
[2]
  IC50: 10.6 ± 1.4 nM
